Test results reported in US20240228488A1 (TAKEDA PHARMACEUTICAL COMPANY LIMITED, priority 2021, published 2024).

Tests used:
plasma kallikrein = molecular target: T1, plasma kallikrein (Homo sapiens, UniProt P03952); experiment: Neat human plasma assay, FXIIa contact pathway-activated, PFR-AMC substrate; format: biochemical; conditions: citrated human plasma 78% final, 10 nM human FXIIa, 100 μM PFR-AMC; read-out: Human Plasma Assay: IC90
T1 construct: from tissue
In short: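 Citrated human plasma (78% final) with compound, contact-activated by 10 nM human FXIIa in pKal buffer pH 7.5, with 100 μM PFR-AMC. Fluorescence (360/480 nm) followed 5 min at room temperature; rates versus concentration fitted by 4-parameter equation for IC50/IC90.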

[1] = molecular target: human activated kallikrein enzyme (Homo sapiens, UniProt P03952); experiment: Plasma kallikrein inhibition, fluorogenic PFR-AMC substrate, 500 pM activated kallikrein format; format: biochemical; conditions: 500 pM activated kallikrein, 300 uM PFR-AMC, 30 min preincubation, 10 min reaction; read-out: Primary Dose Response Assay: Average EC50
Sequence of human activated kallikrein enzyme (P03952 391-638 limits assumed): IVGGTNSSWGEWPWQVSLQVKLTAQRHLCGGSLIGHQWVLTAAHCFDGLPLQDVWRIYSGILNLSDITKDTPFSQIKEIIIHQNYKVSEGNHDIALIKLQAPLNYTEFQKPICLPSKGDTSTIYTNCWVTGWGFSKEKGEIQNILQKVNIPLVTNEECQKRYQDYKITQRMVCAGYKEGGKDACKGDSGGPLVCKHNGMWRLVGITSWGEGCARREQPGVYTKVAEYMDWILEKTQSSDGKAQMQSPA
Sequence of human activated kallikrein enzyme (P03952 20-390 partner limits assumed): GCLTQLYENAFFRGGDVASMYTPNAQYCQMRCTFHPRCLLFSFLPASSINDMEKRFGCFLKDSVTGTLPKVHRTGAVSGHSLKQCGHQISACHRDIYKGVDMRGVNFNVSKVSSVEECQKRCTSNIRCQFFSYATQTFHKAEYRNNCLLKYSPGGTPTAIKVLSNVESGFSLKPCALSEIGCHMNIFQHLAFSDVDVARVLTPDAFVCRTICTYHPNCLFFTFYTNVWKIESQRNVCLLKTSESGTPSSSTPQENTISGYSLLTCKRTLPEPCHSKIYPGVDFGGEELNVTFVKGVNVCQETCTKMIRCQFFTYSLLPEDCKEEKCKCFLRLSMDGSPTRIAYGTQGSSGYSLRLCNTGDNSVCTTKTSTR
In short: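 Enzyme (500 pM) was preincubated with inhibitor for 30 min at room temperature in 20 mM Tris pH 7.5, 1 mM EDTA, 150 mM NaCl, 0.1% PEG-400 and 0.1% Triton X-100. The reaction was started with 300 uM PFR-AMC, run 10 min, and fluorescence read at 460 nm (380 nm excitation). EC50 derived.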

T1 sequence (P03952 391-638 limits assumed): as the sequence (P03952 391-638 limits assumed) above
T1 sequence (P03952 20-390 partner limits assumed): as the sequence (P03952 20-390 partner limits assumed) above

In the case of `Cc1ccnc([C@H]2C[C@@H]2C(=O)Nc2cc(N(C)Cc3cn4cc(C5CC5)cc(N5CC(=O)NC5=O)c4n3)ncn2)n1` [Example 375, (1S,2S)-N-(6-(((6-cyclopropyl-8-(2,4-dioxoimidazolidin-1-yl)imidazo[1,2-a]pyridin-2-yl)methyl)(methyl)amino)pyrimidin-4-yl)-2-(4-methylpyrimidin-2-yl)cyclopropane-1-carboxamide], the IC90 (plasma kallikrein) is reported as less than 400 nM and the EC50 [1] is reported as less than 1 nM.

`Cc1ccnc([C@H]2C[C@@H]2C(=O)Nc2cc(NCc3cn4cc(C5CC5)cc(N5CCOC5=O)c4n3)ncn2)n1` [Example 376, (1S,2S)-N-(6-(((6-cyclopropyl-8-(2-oxooxazolidin-3-yl)imidazo[1,2-a]pyridin-2-yl)methyl)amino)pyrimidin-4-yl)-2-(4-methylpyrimidin-2-yl)cyclopropane-1-carboxamide] showed an IC90 (plasma kallikrein) of less than 400 nM and an EC50 [1] of less than 1 nM.

For `Cc1ccnc([C@H]2C[C@@H]2C(=O)Nc2cc(NCc3cn4cc(C5CC5)cc(N5CCCC5=O)c4n3)ncn2)n1` [Example 377, (1S,2S)-N-(6-(((6-cyclopropyl-8-(2-oxopyrrolidin-1-yl)imidazo[1,2-a]pyridin-2-yl)methyl)amino)pyrimidin-4-yl)-2-(4-methylpyrimidin-2-yl)cyclopropane-1-carboxamide], the IC90 (plasma kallikrein) was 400 to 1500 nM and the EC50 [1] was less than 1 nM.

`Cc1ccnc([C@H]2C[C@@H]2C(=O)Nc2cc(NCc3cn4cc(C5CC5)cc(N5CC(=O)N(C6COC6)C5=O)c4n3)ncn2)n1` [Example 378, (1S,2S)-N-(6-(((6-cyclopropyl-8-(3-(oxetan-3-yl)-2,4-dioxoimidazolidin-1-yl)imidazo[1,2-a]pyridin-2-yl)methyl)amino)pyrimidin-4-yl)-2-(4-methylpyrimidin-2-yl)cyclopropane-1-carboxamide] gave an IC90 (plasma kallikrein) of less than 400 nM and an EC50 [1] of less than 1 nM.

For `Cc1ccnc([C@H]2C[C@@H]2C(=O)Nc2cc(NCc3nc4c(N5CC(=O)N(C)C5=O)cc(C5CC5)cn4c3F)ncn2)n1` [Example 379, (1S,2S)-N-(6-(((6-cyclopropyl-3-fluoro-8-(3-methyl-2,4-dioxoimidazolidin-1-yl)imidazo[1,2-a]pyridin-2-yl)methyl)amino)pyrimidin-4-yl)-2-(4-methylpyrimidin-2-yl)cyclopropane-1-carboxamide], the IC90 (plasma kallikrein) was 400 to 1500 nM and the EC50 [1] was less than 1 nM.

`Cc1ccnc([C@H]2C[C@@H]2C(=O)Nc2cc(NCc3cn4cc(C5CC5)ccc4n3)ncn2)n1` [Example 381, (1S,2S)-N-(6-(((6-cyclopropylimidazo[1,2-a]pyridin-2-yl)methyl)amino)pyrimidin-4-yl)-2-(4-methylpyrimidin-2-yl)cyclopropane-1-carboxamide] was tested, and the IC90 (plasma kallikrein) was 10000 to 48000 nM and the EC50 [1] was less than 1 nM.

With `COCCOCCN1C(=O)CN(c2cc(C3CC3)cn3cc(CNc4cc(NC(=O)[C@H]5C[C@@H]5c5nccc(C)n5)ncn4)nc23)C1=O` [Example 382, (1S,2S)-N-(6-(((6-cyclopropyl-8-(3-(2-(2-methoxyethoxy)ethyl)-2,4-dioxoimidazolidin-1-yl)imidazo[1,2-a]pyridin-2-yl)methyl)amino)pyrimidin-4-yl)-2-(4-methylpyrimidin-2-yl)cyclopropane-1-carboxamide] the IC90 (plasma kallikrein) was less than 400 nM and the EC50 [1] was less than 1 nM.

For `CCN1CCN(c2cc(C3CC3)cn3cc(CNc4cc(NC(=O)[C@H]5C[C@@H]5c5nccc(C)n5)ncn4)nc23)CC1` [Example 383, (1S,2S)-N-(6-(((6-cyclopropyl-8-(4-ethylpiperazin-1-yl)imidazo[1,2-a]pyridin-2-yl)methyl)amino)pyrimidin-4-yl)-2-(4-methylpyrimidin-2-yl)cyclopropane-1-carboxamide], the IC90 (plasma kallikrein) was less than 400 nM and the EC50 [1] was less than 1 nM.

`Cc1ccnc([C@H]2C[C@@H]2C(=O)Nc2cc(NCc3cn4cc(C5CC5)cc(N5CC(=O)N(C6CC6)C5=O)c4n3)ncn2)n1` [Example 384, (1S,2S)-N-(6-(((6-cyclopropyl-8-(3-cyclopropyl-2,4-dioxoimidazolidin-1-yl)imidazo[1,2-a]pyridin-2-yl)methyl)amino)pyrimidin-4-yl)-2-(4-methylpyrimidin-2-yl)cyclopropane-1-carboxamide] gave an IC90 (plasma kallikrein) of less than 400 nM and an EC50 [1] of less than 1 nM.

Work on `CCN1C(=O)CN(c2cc(C3CC3)cn3cc(CNc4cc(NC(=O)[C@H]5C[C@@H]5c5nccc(C)n5)ncn4)nc23)C1=O` [Example 385, (1S,2S)-N-(6-(((6-cyclopropyl-8-(3-ethyl-2,4-dioxoimidazolidin-1-yl)imidazo[1,2-a]pyridin-2-yl)methyl)amino)pyrimidin-4-yl)-2-(4-methylpyrimidin-2-yl)cyclopropane-1-carboxamide] yielded an IC90 (plasma kallikrein) of less than 400 nM and an EC50 [1] of less than 1 nM.

`O=C(Nc1cc(NCc2cn3cc(C4CC4)cc(N4CCNC4=O)c3n2)ncn1)[C@H]1C[C@@H]1c1cc(Cl)ccn1` [Example 394, (1S,2S)-2-(4-chloropyridin-2-yl)-N-(6-(((6-cyclopropyl-8-(2-oxoimidazolidin-1-yl)imidazo[1,2-a]pyridin-2-yl)methyl)amino)pyrimidin-4-yl)cyclopropane-1-carboxamide] was tested, and the IC90 (plasma kallikrein) was 400 to 1500 nM and the EC50 [1] was less than 1 nM.

`O=C1CN(c2cc(C3CC3)cn3cc(CNc4cc(NC(=O)[C@H]5C[C@@H]5c5cc(Cl)ccn5)ncn4)nc23)C(=O)N1` [Example 395, (1S,2S)-2-(4-chloropyridin-2-yl)-N-(6-(((6-cyclopropyl-8-(2,4-dioxoimidazolidin-1-yl)imidazo[1,2-a]pyridin-2-yl)methyl)amino)pyrimidin-4-yl)cyclopropane-1-carboxamide] showed an IC90 (plasma kallikrein) of less than 400 nM and an EC50 [1] of less than 1 nM.

`O=C1CN(c2cc(C3CC3)cn3cc(CNc4cc(NC(=O)[C@H]5C[C@@H]5c5cccc(Cl)c5)ncn4)nc23)C(=O)N1` [Example 396, (1S,2S)-2-(3-chlorophenyl)-N-(6-(((6-cyclopropyl-8-(2,4-dioxoimidazolidin-1-yl)imidazo[1,2-a]pyridin-2-yl)methyl)amino)pyrimidin-4-yl)cyclopropane-1-carboxamide] was tested, and the IC90 (plasma kallikrein) was 400 to 1500 nM and the EC50 [1] was less than 1 nM.

`O=C(Nc1cc(NCc2cn3cc(C4CC4)cc(N4CC(=O)N(C5CC5)C4=O)c3n2)ncn1)[C@H]1C[C@@H]1c1cccc(Cl)c1` [Example 399, (1S,2S)-2-(3-chlorophenyl)-N-(6-(((6-cyclopropyl-8-(3-cyclopropyl-2,4-dioxoimidazolidin-1-yl)imidazo[1,2-a]pyridin-2-yl)methyl)amino)pyrimidin-4-yl)cyclopropane-1-carboxamide] showed an IC90 (plasma kallikrein) of 1500 to 10000 nM and an EC50 [1] of 1 to 10 nM.

`CN1C(=O)CN(Cc2cc(C3CC3)cn3cc(CNc4cc(NC(=O)[C@H]5C[C@@H]5c5cccc(Cl)c5)ncn4)nc23)C1=O` [Example 400, (1S,2S)-2-(3-chlorophenyl)-N-(6-(((6-cyclopropyl-8-((3-methyl-2,4-dioxoimidazolidin-1-yl)methyl)imidazo[1,2-a]pyridin-2-yl)methyl)amino)pyrimidin-4-yl)cyclopropane-1-carboxamide] gave an IC90 (plasma kallikrein) of 1500 to 10000 nM and an EC50 [1] of 1 to 10 nM.

With `CN1CCC(O)(c2cc(C3CC3)cn3cc(CNc4cc(NC(=O)[C@H]5C[C@@H]5c5cccc(Cl)c5)ncn4)nc23)CC1` [Example 401, (1S,2S)-2-(3-chlorophenyl)-N-(6-(((6-cyclopropyl-8-(4-hydroxy-1-methylpiperidin-4-yl)imidazo[1,2-a]pyridin-2-yl)methyl)amino)pyrimidin-4-yl)cyclopropane-1-carboxamide] the IC90 (plasma kallikrein) was 400 to 1500 nM and the EC50 [1] was less than 1 nM.

For `CN1CC(F)(c2cc(C3CC3)cn3cc(CNc4cc(NC(=O)[C@H]5C[C@@H]5c5cccc(Cl)c5)ncn4)nc23)C1` [Example 402, (1S,2S)-2-(3-chlorophenyl)-N-(6-(((6-cyclopropyl-8-(3-fluoro-1-methylazetidin-3-yl)imidazo[1,2-a]pyridin-2-yl)methyl)amino)pyrimidin-4-yl)cyclopropane-1-carboxamide], the IC90 (plasma kallikrein) was 400 to 1500 nM and the EC50 [1] was less than 1 nM.

For `CN1CCC(F)(c2cc(C3CC3)cn3cc(CNc4cc(NC(=O)[C@H]5C[C@@H]5c5cccc(Cl)c5)ncn4)nc23)CC1` [Example 403, (1S,2S)-2-(3-chlorophenyl)-N-(6-(((6-cyclopropyl-8-(4-fluoro-1-methylpiperidin-4-yl)imidazo[1,2-a]pyridin-2-yl)methyl)amino)pyrimidin-4-yl)cyclopropane-1-carboxamide], the IC90 (plasma kallikrein) was 400 to 1500 nM and the EC50 [1] was less than 1 nM.

Compound `CN1CC(=O)N(c2cc(C3CC3)cn3cc(CNc4cc(NC(=O)[C@H]5C[C@@H]5c5cccc(Cl)c5)ncn4)nc23)CC1=O` [Example 404, (1S,2S)-2-(3-chlorophenyl)-N-(6-(((6-cyclopropyl-8-(4-methyl-2,5-dioxopiperazin-1-yl)imidazo[1,2-a]pyridin-2-yl)methyl)amino)pyrimidin-4-yl)cyclopropane-1-carboxamide] has an IC90 (plasma kallikrein) of 400 to 1500 nM and an EC50 [1] of less than 1 nM.

`COc1nc(NC(=O)[C@H]2C[C@@H]2c2nccc(C)n2)cc(N(C)Cc2cn3cc(C4CC4)cc(N4CC(=O)N(C)C4=O)c3n2)n1` [Example 406, (1S,2S)-N-(6-(((6-cyclopropyl-8-(3-methyl-2,4-dioxoimidazolidin-1-yl)imidazo[1,2-a]pyridin-2-yl)methyl)(methyl)amino)-2-methoxypyrimidin-4-yl)-2-(4-methylpyrimidin-2-yl)cyclopropane-1-carboxamide] showed an IC90 (plasma kallikrein) of less than 400 nM and an EC50 [1] of less than 1 nM.

Compound `COc1nc(NC(=O)[C@H]2C[C@@H]2c2nccc(C)n2)cc(N[C@H](C)c2cn3cc(C4CC4)cc(N4CC(=O)N(C)C4=O)c3n2)n1` [Example 407, (1S,2S)-N-(6-(((R)-1-(6-cyclopropyl-8-(3-methyl-2,4-dioxoimidazolidin-1-yl)imidazo[1,2-a]pyridin-2-yl)ethyl)amino)-2-methoxypyrimidin-4-yl)-2-(4-methylpyrimidin-2-yl)cyclopropane-1-carboxamide] has an IC90 (plasma kallikrein) of 400 to 1500 nM and an EC50 [1] of less than 1 nM.
